Literature values in patent US10196371B2, “Compounds for the treatment of HPV-induced carcinoma” (Åbo Akademi, priority 2014, dated 2019).

Legend:
[1] = test system: HPV16 positive cervical cancer cells

## C=C1C(=O)OC2/C=C(/C)CC/C=C(\C(=O)O)CC/C=C(\C)CCC12 (centres unmarked) [anisomelic acid]
[1]
  efficiency in inducing apoptosis: good efficiency
E6 and E7
  protein level expression of E6 and E7: inhibits
